Consider one compound from paper PMC9649653, “Biochemical and structural basis for differential inhibitor sensitivity of EGFR with distinct exon 19 mutations” (Nature Communications, 2022).

“And” between values parts separate entries of the source, which are not always exact repeats. Equal values may be shown once. Read-outs that look alike come from different tables or passages of the source.

The target in one test is T1, wild type EGFR TKD (Homo sapiens, UniProt P00533).
T1 construct: hexa-histidine (6x His) (N); made in house; host or cells: Spodoptera frugiperda Sf9 (baculovirus, pFastBac1)
Description: Michaelis-Menten kinetics (KM,ATP, KM,pept). The format is biochemical.

The target in a further test is T2, EGFR TKD ΔL747-A750InsP (Homo sapiens, UniProt P00533, A750P/DEL747-749).
T2 construct: 6x His (N); made in house; host or cells: Spodoptera frugiperda Sf9 (baculovirus)
Description: Michaelis-Menten kinetics (KM,ATP, KM,pept). The format is biochemical.

The next test deals with T3, EGFR TKD L747P (Homo sapiens, UniProt P00533, L747P).
T3 construct: 6x His (N); made in house; host or cells: Spodoptera frugiperda Sf9 (baculovirus)
Description: Michaelis-Menten kinetics (KM,ATP, KM,pept). The format is biochemical.

The next test deals with T4, EGFR TKD ΔE746-A750 (Homo sapiens, UniProt P00533, DEL746-750).
T4 construct: 6x His (N); made in house; host or cells: Spodoptera frugiperda Sf9 (baculovirus)
The test is described as follows: Michaelis-Menten kinetics (KM,ATP, KM,pept). To be noted: read-out: Best fit KM,ATP; individual experiments (Fig. 3b data). The format is biochemical.

Another test concerns the target T5, EGFR TKD ΔE746-T751InsA (Homo sapiens, UniProt P00533, DEL746-750/T751A).
T5 construct: 6x His (N); made in house; host or cells: Spodoptera frugiperda Sf9 (baculovirus)
The test is described as follows: Michaelis-Menten kinetics (KM,ATP, KM,pept). The format is biochemical.

Another test has as its target T6, EGFR TKD ΔL747-T751InsP (Homo sapiens, UniProt P00533, DEL747-750/T751P).
T6 construct: 6x His (N); made in house; host or cells: Spodoptera frugiperda Sf9 (baculovirus)
The test is described as follows: Michaelis-Menten kinetics (KM,ATP, KM,pept). The format is biochemical. The settings on record: read-out: Best fit KM,ATP; individual experiments (Fig. 3b data).

In a further test the target is T7, EGFR TKD ΔL747-P753InsS (Homo sapiens, UniProt P00533, DEL747-752/P753S).
T7 construct: 6x His (N); made in house; host or cells: Spodoptera frugiperda Sf9 (baculovirus)
The test is described as follows: Michaelis-Menten kinetics (KM,ATP, KM,pept). The format is biochemical.

The target of the next test is T8, EGFR TKD ΔS752-I759 (Homo sapiens, UniProt P00533, DEL752-759).
T8 construct: 6x His (N); made in house; host or cells: Spodoptera frugiperda Sf9 (baculovirus)
The test is described as follows: Michaelis-Menten kinetics (KM,ATP, KM,pept). The format is biochemical.

In another test the target is T9, EGFR TKD L858R (Homo sapiens, UniProt P00533, L858R).
T9 construct: 6x His (N); made in house; host or cells: Spodoptera frugiperda Sf9 (baculovirus)
Description: Michaelis-Menten kinetics (KM,ATP, KM,pept). The format is biochemical.

A further test concerns the target T10, EGFR TKD L858R/T790M (Homo sapiens, UniProt P00533, L858R/T790M).
T10 construct: 6x His (N); made in house; host or cells: Spodoptera frugiperda Sf9 (baculovirus)
The test is described as follows: Michaelis-Menten kinetics (KM,ATP, KM,pept). To be noted: read-out: Best fit KM,ATP; individual experiments (Fig. 3b data). The format is biochemical.

In a further test the target is EGFR TKD ΔL747-E749 (Homo sapiens, UniProt P00533, DEL747-749). The test is described as follows: Michaelis-Menten kinetics (KM,ATP).
Setting [1] is: read-out: Best fit KM,ATP, individual experiments (Fig. 3b data).
The mark [2] stands for this setting: read-out: KM, ATP, 20 μM peptide, mean ± SD.

A word on the Km: it is the substrate concentration at which the rate is half of its maximum. For the compound `Nc1ncnc2c1ncn2[C@@H]1O[C@H](COP(=O)(O)OP(=O)(O)OP(=O)(O)O)[C@@H](O)[C@H]1O` [ATP], the Km at wild type EGFR TKD (setting [1]) was 9.32 µM and 7.22 µM and 7.98 µM and 15.8 µM and 15.6 µM and 15 µM and 12.6 µM and 10.1 µM; on wild type EGFR TKD (setting [2]), 12 ± 3 µM; on EGFR TKD ΔL747-A750InsP (setting [1]), 23.6 µM and 15.4 µM and 18.7 µM and 31.1 µM and 32.5 µM and 29.2 µM and 22.7 µM and 20.1 µM and 16.8 µM; on EGFR TKD ΔL747-A750InsP (setting [2]), 23 ± 6 µM; on EGFR TKD L747P (setting [1]) it was 16.8 µM and 14.6 µM and 12.5 µM and 19.3 µM and 21.2 µM and 21.7 µM and 28.8 µM and 29.4 µM and 26 µM; on EGFR TKD L747P (setting [2]), 21 ± 6 µM. The Km at EGFR TKD ΔE746-A750 is 194 µM and 149 µM and 116 µM and 126 µM; on EGFR TKD ΔE746-T751InsA (setting [1]), 216 µM and 285 µM and 228 µM and 263 µM and 287 µM and 318 µM; on EGFR TKD ΔE746-T751InsA (setting [2]) it was 240 ± 59 µM; on EGFR TKD ΔL747-T751InsP, 93.5 µM and 183 µM and 100 µM and 217 µM and 135 µM and 204 µM and 224 µM; at EGFR TKD ΔL747-P753InsS (setting [1]), 115 µM and 93.7 µM and 90.2 µM and 86 µM and 70.3 µM and 87.6 µM and 138 µM and 132 µM and 99.9 µM; at EGFR TKD ΔL747-P753InsS (setting [2]), 101 ± 22 µM. Moreover, the Km on EGFR TKD ΔS752-I759 (setting [1]) is 124 µM (2×) and 122 µM and 82.8 µM (2×) and 79.2 µM and 65.9 µM and 75.6 µM and 64.3 µM; on EGFR TKD ΔS752-I759 (setting [2]), 91 ± 25 µM; on EGFR TKD L858R (setting [1]), 89.3 µM and 87.4 µM and 87.6 µM and 63.1 µM and 77.3 µM and 74.5 µM and 60.1 µM and 51.1 µM; at EGFR TKD L858R (setting [2]), 74 ± 14 µM; on EGFR TKD L858R/T790M, 48 µM and 47.5 µM and 38.9 µM and 35.3 µM and 47.4 µM and 56.3 µM and 50.7 µM; at EGFR TKD ΔL747-E749 (setting [1]), 10.3 µM and 8.84 µM and 8.25 µM and 18.4 µM and 22.3 µM and 26.3 µM and 7.28 µM and 5.87 µM and 5.78 µM. The Km on EGFR TKD ΔL747-E749 (setting [2]) came out at 13 ± 8 µM. Further, on EGFR TKD L747P, the “KM, ATP for L747P smaller than for ΔE746-A750” value worked out at 7.5 fold.
